Source: patent publication US7396812B2, “Method for modulating Nod1 activity, use of a MTP related molecule for modulating Nod1 activity, and therapeutic applications thereof” (Institut Pasteur, priority 2003, dated 2008)
“Also recorded” adds a separate entry of the source.

Assays:
Nod1 [1] = target: T1, Nod1 (Homo sapiens, UniProt Q9Y239); assay: Nod1-dependent NF-κB-luciferase activation in Nod1-overexpressing HEK293 cells; format: cell-based; design: expressed in transfected cells; host or cells: HEK293; conditions: for stimulation of the Nod1 pathway (NF-κB activation): LPS, lipid A, lipoprotein preparations, 10 μg (10 μg/ml in b180); for activation of Nod1 by HPLC muropeptide fractions: N. meningitidis PGN muropeptide fractions, 1% of the volume of each fraction; for detection by Nod1 (Nod1-dependent activation of NF-κB): equivalent amounts (10 ng) of muropeptide
T1 sequence (Q9Y239 1-953): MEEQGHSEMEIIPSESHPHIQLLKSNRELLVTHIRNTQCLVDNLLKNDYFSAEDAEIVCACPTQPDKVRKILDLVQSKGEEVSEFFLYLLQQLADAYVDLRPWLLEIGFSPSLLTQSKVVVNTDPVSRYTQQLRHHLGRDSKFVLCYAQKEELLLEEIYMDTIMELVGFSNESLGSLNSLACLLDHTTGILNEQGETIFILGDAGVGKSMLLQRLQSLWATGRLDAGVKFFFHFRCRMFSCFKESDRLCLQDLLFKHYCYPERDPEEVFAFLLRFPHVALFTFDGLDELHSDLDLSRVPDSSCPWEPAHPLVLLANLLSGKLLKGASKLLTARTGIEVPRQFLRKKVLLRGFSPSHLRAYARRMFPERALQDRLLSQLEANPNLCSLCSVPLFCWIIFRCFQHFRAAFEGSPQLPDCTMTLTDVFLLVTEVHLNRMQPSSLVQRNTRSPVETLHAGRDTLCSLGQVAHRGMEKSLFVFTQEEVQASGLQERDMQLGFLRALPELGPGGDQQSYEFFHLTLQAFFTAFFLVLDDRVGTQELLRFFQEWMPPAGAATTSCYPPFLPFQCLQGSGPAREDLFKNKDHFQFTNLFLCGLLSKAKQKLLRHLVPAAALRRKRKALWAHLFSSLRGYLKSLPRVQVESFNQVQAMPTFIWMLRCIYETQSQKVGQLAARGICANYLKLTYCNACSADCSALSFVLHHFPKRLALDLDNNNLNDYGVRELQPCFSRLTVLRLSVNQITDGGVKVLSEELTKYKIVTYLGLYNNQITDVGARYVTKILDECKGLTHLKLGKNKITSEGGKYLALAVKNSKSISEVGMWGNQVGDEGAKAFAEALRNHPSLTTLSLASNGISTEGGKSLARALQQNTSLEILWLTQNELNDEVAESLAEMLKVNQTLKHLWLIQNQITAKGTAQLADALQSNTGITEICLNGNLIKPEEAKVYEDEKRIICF
Experimental: (§1) Studies examining the activation of NF-κB by LPS, lipid A, lipoproteins or the purified PGNs in cells over-expressing Nod1 were carried out as described by Inohara et al. (N. Inohara et al., 2001). Briefly, HEK293 cells were transfected overnight with 10 ng of Nod1. At the same time, the LPS, lipoproteins or peptidoglycan preparations were added and the NF-κB-dependent luciferase activation was then measured following 24 h of co-incubation.
(§2) NF-κB-dependent luciferase assays were performed in duplicate and data represent at least 3 independent experiments.

[2] = tested on: NF-κB p65 in isolated intestinal epithelial cells; assay: NF-κB p65 nuclear translocation in isolated intestinal epithelial cells from wild-type or Nod1-deficient mice; format: cell-based; conditions: supernatants microinjected, TNFα 10 ng/ml
Experimental: At least 50 microinjected cells were examined per coverslip and experiments were performed at least 2 times independently with similar results.
Microinjection of Gram-negative but not Gram-positive bacterial supernatants activates NF-κB in isolated intestinal epithelial cells from wild-type mice, as observed by nuclear translocation of the p65 subunit of NF-κB (as described in FIG. 3B).

Nod2 [3] = target: T2, Nod2 (Homo sapiens, UniProt Q9HC29); conditions: previous findings, Girardin et al. 2003; Inohara et al. 2003; cited from earlier work
T2 construct: expressed in transfected cells
T2 sequence (Q9HC29 whole entry): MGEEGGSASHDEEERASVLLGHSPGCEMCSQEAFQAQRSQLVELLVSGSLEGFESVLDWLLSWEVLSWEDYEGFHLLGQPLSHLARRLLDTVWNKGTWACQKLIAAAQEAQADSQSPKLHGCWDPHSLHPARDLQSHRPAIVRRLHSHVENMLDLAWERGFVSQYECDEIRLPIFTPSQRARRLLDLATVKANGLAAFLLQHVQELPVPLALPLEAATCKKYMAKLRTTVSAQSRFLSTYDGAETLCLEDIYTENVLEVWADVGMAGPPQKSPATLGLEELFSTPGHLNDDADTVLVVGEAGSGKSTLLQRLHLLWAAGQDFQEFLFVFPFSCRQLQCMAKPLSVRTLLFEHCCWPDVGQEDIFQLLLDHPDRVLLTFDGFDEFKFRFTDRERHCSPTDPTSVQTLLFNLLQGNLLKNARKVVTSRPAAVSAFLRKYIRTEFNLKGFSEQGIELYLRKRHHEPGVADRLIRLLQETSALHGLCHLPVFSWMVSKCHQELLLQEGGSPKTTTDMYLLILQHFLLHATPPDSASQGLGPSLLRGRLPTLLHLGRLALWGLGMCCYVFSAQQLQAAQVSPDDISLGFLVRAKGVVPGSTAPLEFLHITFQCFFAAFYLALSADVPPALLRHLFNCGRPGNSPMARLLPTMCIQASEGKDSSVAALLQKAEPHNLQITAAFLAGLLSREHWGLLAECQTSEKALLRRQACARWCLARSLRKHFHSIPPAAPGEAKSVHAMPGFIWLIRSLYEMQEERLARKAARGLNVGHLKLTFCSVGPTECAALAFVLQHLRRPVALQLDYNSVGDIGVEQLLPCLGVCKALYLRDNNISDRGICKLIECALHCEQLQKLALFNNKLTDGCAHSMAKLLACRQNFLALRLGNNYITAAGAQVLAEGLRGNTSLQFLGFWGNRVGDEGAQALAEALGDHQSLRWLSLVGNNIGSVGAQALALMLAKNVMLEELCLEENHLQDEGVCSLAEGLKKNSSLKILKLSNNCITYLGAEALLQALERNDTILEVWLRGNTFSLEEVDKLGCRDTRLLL

Nod2 [4] = target: T2, Nod2; assay: Nod2-dependent activation of NF-κB; format: cell-based; conditions: equivalent amounts (10 ng) of muropeptide
Experimental: as §1, §2
In FIG. 2A, PGN muropeptides from N. meningitidis were separated by reverse-phase HPLC and subsequently analysed by mass spectroscopy (see supporting on-line text). N.D.(a), not determined for this particular HPLC fractionation, but found to be O-acetylated dimeric GM-tetrapeptide in subsequent HPLC fractionation and mass spectroscopy analyses. […] N.D.(b), fraction unknown. […] FIG. 2C is a schematic representation of N. meningitidis PGN detailing the Nod1-active motif from fraction 3 (GM-tripeptide) as determined by mass spectroscopy. In FIG. 2D, equivalent amounts (10 ng) of GM-dipeptide (GM-di; synthetic source), GM-tripeptide (GMtri), or GM-tetrapeptide (GM-tetra) were tested for stimulation of Nod1-, Nod2- or TLR2-dependent activation of NF-κB. […]

Nod1 [5] = target: T1, Nod1; assay: Nod1-dependent IL-8 production in HeLa epithelial cells (ELISA); format: cell-based; design: expressed in transfected cells; conditions: HeLa cells transfected with 10 ng Nod1 plus muropeptide, 18 h
Experimental: To measure Nod1-dependent IL-8 produced in epithelial cells by muropeptides, 5×10^5 HeLa cells were seeded into each well of a twelve well plate and transfected the following day with 10 ng Nod1 plus the individual muropeptides (as described above) or treated with IL-1 as a positive control. Eighteen hours later, supernatants were collected and assayed for IL-8 as previously described (D. J. Philpott et al., 2000) using an ELISA kit (R and D Systems).

With CC(=O)NC1C(O)OC(CO)C(O)C1OC(C)C(=O)NC(C)C(=O)NC(CCC(=O)NC(CCCC(N)C(=O)O)C(=O)O)C(=O)O (stereo not drawn) [MurTriDAP] the “detection by Nod1 of peptidoglycan structures (FIG. 8)” value (“detection by Nod1 … (FIG. 8)” below) (Nod1 [1]) was “detects”.
In the case of TNFα, the “NF-κB nuclear translocation in Nod1-deficient cells” value [2] is reported as “can efficiently stimulate NF-κB nuclear translocation”.
For “Pam3Cys-Ser-Lys4-OH [synthetic lipopeptide]”, the “stimulation of the Nod1 pathway (NF-κB activation)” value (from here on “stimulation of the Nod1 pathway”) (Nod1 [1]) was “not possible to stimulate the Nod1 pathway” and the “stimulation of the Nod1 pathway” value (Nod1 [1]; listed as lipopeptide) was “fail to activate the Nod1 pathway”.
In the case of C[C@H](N)C(=O)N[C@H](CCC(=O)NC(CCCC(N)C(=O)O)C(=O)O)C(=O)O (stereo partly drawn) [TriDAP], the “detection by Nod1 … (FIG. 8)” value (Nod1 [1]) is reported as “detects”.
For C[C@H](N)C(=O)N[C@H](CCC(=O)NC(CCCC(N)C(=O)O)C(=O)O)C(=O)O (stereo partly drawn) [tripeptide L-Ala-D-Glu-mesoDAP, L-Ala-D-Glu-mesoDAP], the “detection by Nod1 … (FIG. 8)” value (Nod1 [1]) was “able to sense”.
For CC(=O)N[C@@H]1[C@@H](O[C@H](C)C(=O)N[C@@H](C)C(=O)N[C@H](CCC(=O)O)C(N)=O)[C@H](O)[C@@H](CO)O[C@H]1O [M-dipeptide], the “recognition by Nod2” value (Nod2 [3]) is given as “recognizes”.
In the case of CC(=O)N[C@H]1[C@@H](OP(=O)(O)OP(=O)(O)OC[C@H]2O[C@@H](n3ccc(=O)[nH]c3=O)[C@H](O)[C@@H]2O)O[C@H](CO)[C@@H](O)[C@@H]1O[C@H](C)C(=O)N[C@@H](C)C(=O)N[C@H](CCC(=O)N[C@@H](CCC[C@@H](N)C(=O)O)C(=O)O)C(=O)O [UDP-MurTriDAP], the “detection by Nod1 … (FIG. 8)” value (Nod1 [1]) is reported as “detects”.
In the case of CC(=O)N[C@H]1[C@H](O[C@H]2[C@H](O[C@H](C)C(=O)N[C@@H](C)C(=O)N[C@H](CCC(=O)O)C(N)=O)[C@@H](NC(C)=O)C(O)O[C@@H]2CO)O[C@H](CO)[C@@H](O)[C@@H]1O (stereo partly drawn) [GM-dipeptide], the “detection by Nod2 (Nod2-dependent activation of NF-κB)” value (Nod2 [4]) is reported as “detects”.
In the case of “GlcNAc-MurNAc-L-Ala-D-Glu-mesoDAP(GlcNAc-MurNAc-L-Ala-D-Glu-mesoDAP-D-Ala)-D-Ala [dimeric GM-tetrapeptide]”, the “activation of Nod1 by HPLC muropeptide fractions” value (Nod1 [1]) is reported as “does not activate Nod1”.
In the case of “GlcNAc-MurNAc-L-Ala-D-Glu-mesoDAP [GM-tripeptide]”, the “production of IL-8” value (Nod1 [5]) is reported as “production of the pro-inflammatory chemokine, IL-8; also recorded: leads to the production”, the “detection by Nod1 … (FIG. 8)” value (Nod1 [1]) is reported as “detects” and the “activation of Nod1 by HPLC muropeptide fractions” value (Nod1 [1]; listed as fraction 3) is reported as “activates Nod1; also recorded: able to activate Nod1”. The “detection by Nod1 (Nod1-dependent activation of NF-κB)” value (Nod1 [1]) was “specifically detects”.
For lipid A, the “stimulation of the Nod1 pathway” value (Nod1 [1]) was “could not stimulate the Nod1 pathway”.
In the case of “GlcNAc-MurNAc-L-Ala-D-Glu-mesoDAP-DAla [GM-tetrapeptide]”, the “detection by Nod1 (Nod1-dependent activation of NF-κB)” value (Nod1 [1]) is reported as “not sensed by Nod1”.
In the case of “Lpp: the most abundant lipoprotein in E. coli (lipidated)”, the “stimulation of the Nod1 pathway” value (Nod1 [1]) is reported as “fail to activate the Nod1 pathway; also recorded: not possible to stimulate the Nod1 pathway”.
In the case of “GlcNAc-anhydro-MurNAc-L-Ala-D-GlumesoDAP [anhydrous GM-tripeptide]”, the “activation of Nod1 by HPLC muropeptide fractions” value (Nod1 [1]) is reported as “active molecule in fraction 17”.
